Results published in US4705796A, “Use of 3-N-phenylacetylamino-2,6-piperidinedione for treatment of neuropsychiatric disorders” (priority 1986, dated 1987).

How the values were obtained:
[1] = tested on: PEA induced rotations in unilateral nigral lesioned rats; assay: Rotational behavior in unilateral substantia nigra 6-hydroxydopamine lesioned rats; type: in vivo, rat
[2] = molecular target: T1, human platelet MAO B (Homo sapiens, UniProt P27338); assay: Inhibition of platelet MAO B activity in vitro (human platelets); type: biochemical
T1 construct: The platelet pellet was resuspended in 5.0 ml of 0.1 M phosphate buffer with pH 7.4 by sonication; from tissue; host or cells: human blood platelets from normal volunteers, sonicated
T1 sequence (P27338 1-520): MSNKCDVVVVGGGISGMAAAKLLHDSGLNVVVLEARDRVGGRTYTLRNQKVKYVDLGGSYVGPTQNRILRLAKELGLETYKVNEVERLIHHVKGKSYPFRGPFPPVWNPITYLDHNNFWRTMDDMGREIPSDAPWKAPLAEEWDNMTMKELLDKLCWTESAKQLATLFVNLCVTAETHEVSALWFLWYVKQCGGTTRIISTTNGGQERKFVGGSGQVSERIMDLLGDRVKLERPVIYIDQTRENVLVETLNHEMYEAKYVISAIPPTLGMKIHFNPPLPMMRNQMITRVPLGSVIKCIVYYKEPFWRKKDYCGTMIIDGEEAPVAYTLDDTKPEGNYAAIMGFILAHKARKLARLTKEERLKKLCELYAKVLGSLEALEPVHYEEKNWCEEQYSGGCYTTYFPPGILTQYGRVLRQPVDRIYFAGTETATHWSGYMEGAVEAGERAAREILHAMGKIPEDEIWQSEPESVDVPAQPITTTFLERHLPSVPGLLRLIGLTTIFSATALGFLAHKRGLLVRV

[3] = tested on: rat caudate nucleus (H^3-spiroperidol); assay: Displacement of H^3-spiroperidol from rat caudate nucleus; type: binding; details: in vitro
[4] = tested on: PEA induced stereotype behavior; assay: PEA induced stereotype behavior in rats; type: in vivo, rat
[5] = molecular target: T2, human brain MAO B (Homo sapiens, UniProt P27338); assay: MAO B activity in human brain homogenate (14C-PEA substrate); type: biochemical
T2 construct: Human and rat caudate nuclei were homogenized in 0.32M sucrose; from tissue; host or cells: human caudate nucleus homogenate (1%)
T2 sequence (P27338 1-520): T1 sequence (P27338 1-520)

[6] = molecular target: T3, human brain MAO A (Homo sapiens, UniProt P21397); assay: MAO A activity in human brain homogenate (14C-5HT substrate); type: biochemical; details: substrate 14C-5HT; SD 15.1
T3 construct: Human and rat caudate nuclei were homogenized in 0.32M sucrose; from tissue; host or cells: human caudate nucleus homogenate (1%)
T3 sequence (P21397 1-527): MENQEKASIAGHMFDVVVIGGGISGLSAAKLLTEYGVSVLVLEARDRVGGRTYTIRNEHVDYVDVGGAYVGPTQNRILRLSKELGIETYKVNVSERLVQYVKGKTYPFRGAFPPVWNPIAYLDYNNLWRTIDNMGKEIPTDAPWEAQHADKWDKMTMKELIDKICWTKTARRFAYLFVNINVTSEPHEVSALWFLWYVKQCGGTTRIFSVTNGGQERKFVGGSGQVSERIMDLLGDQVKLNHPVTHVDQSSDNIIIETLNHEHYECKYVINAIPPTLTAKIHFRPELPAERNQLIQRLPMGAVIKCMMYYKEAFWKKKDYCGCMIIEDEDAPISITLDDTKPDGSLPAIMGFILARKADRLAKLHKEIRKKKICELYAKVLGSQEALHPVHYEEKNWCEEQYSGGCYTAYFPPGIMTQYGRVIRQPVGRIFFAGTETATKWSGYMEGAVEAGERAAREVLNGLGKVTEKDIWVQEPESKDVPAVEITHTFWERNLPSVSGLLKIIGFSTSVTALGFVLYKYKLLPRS

[7] = tested on: apomorphine and amphetamine induced locomotor changes; assay: Reversal of apomorphine and amphetamine induced locomotor changes in rats; type: in vivo, rat
Description: Thereafter, an analysis of a PAPD was undertaken in vitro and in vivo beginning with antipsychotic (neuroleptic) and antidepressant activity. […] The two distinct forms of the enzyme have been designated as type A (serotonin metabolizing and clorgyline sensitive) and type […] metabolizing and clorgyline insensitive). Based on the stereochemical model, it was predicted that PAPD's effect on MAO type B would be greater than its effect on MAO type A. In vitro data has substantiated this prediction.

[8] = molecular target: T4, rat brain MAO A (Rattus norvegicus, UniProt P21396); assay: MAO A activity in rat brain homogenate (14C-5HT substrate); type: biochemical; details: substrate 14C-5HT; SD ±6.0
T4 construct: Human and rat caudate nuclei were homogenized in 0.32M sucrose; from tissue; host or cells: rat caudate nucleus homogenate (1%)
T4 sequence (P21396 1-526): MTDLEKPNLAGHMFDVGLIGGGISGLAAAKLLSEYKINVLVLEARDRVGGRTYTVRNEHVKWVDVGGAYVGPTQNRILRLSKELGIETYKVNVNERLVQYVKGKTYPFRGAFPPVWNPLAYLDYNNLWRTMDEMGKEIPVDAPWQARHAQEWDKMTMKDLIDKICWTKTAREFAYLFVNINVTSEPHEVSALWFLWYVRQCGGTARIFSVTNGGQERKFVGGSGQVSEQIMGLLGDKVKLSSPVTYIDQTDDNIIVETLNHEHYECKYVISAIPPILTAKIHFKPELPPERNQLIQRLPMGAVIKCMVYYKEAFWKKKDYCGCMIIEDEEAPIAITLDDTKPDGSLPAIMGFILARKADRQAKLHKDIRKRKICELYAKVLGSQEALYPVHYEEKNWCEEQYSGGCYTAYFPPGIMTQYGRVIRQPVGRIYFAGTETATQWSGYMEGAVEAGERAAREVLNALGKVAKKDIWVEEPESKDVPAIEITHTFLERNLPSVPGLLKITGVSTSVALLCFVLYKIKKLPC

[9] = tested on: cancer patients; details: cited from earlier work
[10] = tested on: reserpine-induced akinesia; assay: PEA reversal of reserpine-induced akinesia in rats; type: in vivo, rat
[11] = molecular target: T5, rat brain MAO B (Rattus norvegicus, UniProt P19643); assay: MAO B activity in rat brain homogenate (14C-PEA substrate); type: biochemical
T5 construct: Human and rat caudate nuclei were homogenized in 0.32M sucrose; from tissue; host or cells: rat caudate nucleus homogenate (1%)
T5 sequence (P19643 1-520): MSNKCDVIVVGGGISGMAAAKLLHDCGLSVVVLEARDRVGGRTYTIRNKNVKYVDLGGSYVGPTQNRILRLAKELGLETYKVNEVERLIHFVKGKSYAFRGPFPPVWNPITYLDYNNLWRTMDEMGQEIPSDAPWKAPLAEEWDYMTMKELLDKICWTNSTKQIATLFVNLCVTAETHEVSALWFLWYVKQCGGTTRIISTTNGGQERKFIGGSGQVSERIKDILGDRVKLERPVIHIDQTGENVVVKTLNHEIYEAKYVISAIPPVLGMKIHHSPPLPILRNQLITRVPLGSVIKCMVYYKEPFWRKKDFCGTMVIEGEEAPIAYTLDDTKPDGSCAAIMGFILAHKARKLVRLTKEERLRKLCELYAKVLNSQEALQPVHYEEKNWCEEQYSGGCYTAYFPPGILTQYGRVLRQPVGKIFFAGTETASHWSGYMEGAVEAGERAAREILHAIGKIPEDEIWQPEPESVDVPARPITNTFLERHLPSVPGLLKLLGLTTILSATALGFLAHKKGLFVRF

[12] = PAPD (200 mg/kg by context), 1 h prior to PEA
[13] = clorgyline 5 mg/kg, 1 h prior to PEA
[14] = deprenyl 10 mg/kg, 1 h prior to PEA
[15] = pargyline 50 mg/kg, prior to PEA

In the case of `O=C1CCC(NC(=O)Cc2ccccc2)C(=O)N1` (centres unmarked) [PAPD, 3-N-phenylacetylamino-2,6-piperidinedione], the “number and duration of PEA rotations” value ([1]; PAPD 200 mg/kg, 1 h before PEA) is reported as “increased the number and duration of PEA rotations”, the “number or duration of PEA rotations” value ([1]; PAPD 50, 100 and 150 mg/kg, 1 h before PEA) is reported as “did not affect the number or duration of PEA rotations” and the “maximal inhibition of platelet MAO B” value ([2]; above 1.0 mM) is reported as 100%. For the same molecule, the “inhibition of platelet MAO, relative potency” value ([2]; compared with PAPD / pargyline) was “less potent than pargyline”, the IC50 ([2]; platelets from 6 subjects, duplicate assays, SD 34.5×10^-6) was 63.8 µM and the “inhibition with increasing concentration” value ([2]; range of 0.1 to 1.0 mM) was “linear inhibition”. For the same molecule, the “platelet MAO inhibition” value ([2]; standard platelet analysis) was “significant degree of MAO inhibition”, the “displacement of H^3-spiroperidol” value [3] was “inability to displace H^3 -spiroperidol from rat caudate nucleus” and the “duration of stereotype behavior” value ([4]; 4 and 24 hours after PAPD (both groups)) was 30 min. For the same molecule, the “animals displaying forepaw padding/sniffing/headweaving” value ([4]; 4 hours after PAPD) was 50%, the “animals displaying forepaw padding/sniffing/headweaving” value ([4]; 24 hours after PAPD) was 66% and the “effect on PEA behavior” value ([4]; PAPD 50 and 100 mg/kg pretreatment) was “no effects on PEA behavior were noticed”. The “animals with forepaw padding with continuous sniffing as well as headweaving” value ([4]; PAPD 200 and 400 mg/kg) was 100%, the “duration of stereotype behavior” value ([4]; PAPD 200 and 400 mg/kg) was 45 to 50 min and the other stereotype behavior ([4]; PAPD 200 and 400 mg/kg) was “headbobbing”. The “animals with forepaw padding with continuous sniffing as well as headweaving” value ([4]; PAPD one and two hours prior to PEA) was 100%, the “duration of stereotype behavior” value ([4]; PAPD one hour prior to PEA) was 45 min and the “duration of stereotype behavior” value ([4]; PAPD two hours prior to PEA) was 55 min. For the same molecule, the “selectivity for type B MAO” value ([5]; human brain tissue) was “five times more selective”, the IC50 ([5]; substrate 14C-PEA, PAPD SD 3.7) was 19.9 µM and the IC50 [6] was 139 µM. The “reversal of apomorphine and amphetamine induced locomotor changes” value [7] was “inability to reverse apomorphine and amphetamine induced locomotor changes in rats”, the IC50 [8] was 93.3 µM and the toxic effects ([9]; human, in vivo) was “lack of toxic effects”. The mood ([9]; some cancer patients) was “elevation of mood”, the need for analgesia ([9]; some cancer patients) was “diminished need for analgesia” and the “effect on duration of PEA's reversal of akinesia” value ([10]; PAPD 200 mg/kg, 1 h prior to PEA) was “potentiated the duration of PEA's reversal of akinesia”. The “effect on reversal induced by PEA” value ([10]; PAPD 50 and 100 mg/kg, 1 h prior to PEA) was “antagonized the reversal induced by PEA”, the “duration of activity with increased locomotion” value [10, 12] was 50 min and the “latency to reversal of akinesia” value [10, 12] was “less than five minutes”. For the same molecule, the serotonin behaviors ([10]; PAPD (200 mg/kg by context), interspersed with locomotor activity) was “headweaving and tremors”, the “inhibition of MAO type B versus MAO type A” value ([11]; in vitro and in vivo analyses, summary) was “inhibition of MAO type B greater than that for MAO type A” and the “selectivity: concentrations inhibiting MAO B compared with MAO A” value ([11]; rat brain) was 10 times less. It also gave an IC50 ([11]; substrate 14C-PEA, SD ±2.1) of 8 µM.

With `NCCc1ccccc1` [PEA, phenylethylamine] the duration of rotations ([1]; PEA 50 mg/kg alone) was 30 min, the ipsilateral turning ([1]; rat, in vivo) was “induced ipsilateral turning” and the stereotype behavior ([4]; PEA 50 mg/kg alone) was “no stereotype behavior was observed”. The “duration of activity / reversal of akinesia” value ([10]; PEA 50 mg/kg i.p. alone) was 30 min and the “latency to reversal of akinesia” value ([10]; PEA 50 mg/kg i.p. alone, reserpine 10 mg/kg i.p.) was “less than five minutes”.

With `C#CCN(C)CCCOc1ccc(Cl)cc1Cl` [clorgyline, reference compound] the forepaw padding syndrome ([4]; clorgyline 5 mg/kg) was “did not produce this syndrome”, the other stereotype behavior ([4]; clorgyline 5 mg/kg) was “stereotyped headbobbing” and the “animals with forepaw padding, sniffing, headweaving and retropulsion” value ([4]; clorgyline 10 mg/kg, 1 h prior to PEA) was 100%. The “duration of stereotype behavior” value ([4]; clorgyline, both doses (5 and 10 mg/kg)) was 30 min, the “activity compared with PEA control animals” value [10, 13] was “not as active as PEA control animals” and the duration of behavior [10, 13] was 45 min. For the same molecule, the “latency to reversal of akinesia” value [10, 13] was “less than five minutes” and the serotonin type behavior [10, 13] was “splayed hind legs, myoclonic jerks and headweaving”.

With `C#CCN(C)C(C)Cc1ccccc1` (centres unmarked) [deprenyl, reference compound] the “duration of PEA rotations” value [1, 14] was “increased the duration of PEA rotations”, the “number of ipsilateral turns induced by PEA” value ([1]; rat, in vivo) was “doubled the number of ipsilateral turns” and the “animals with forepaw padding with continuous sniffing and headweaving” value ([4]; deprenyl 5 mg/kg, 1 h prior to PEA) was 50%. The “animals with forepaw padding with continuous sniffing and headweaving” value [4, 14] was 100%, the “duration of stereotype behavior” value ([4]; deprenyl, 1 h prior to PEA) was 60 min and the other stereotype behavior ([4]; deprenyl, 1 h prior to PEA) was “no other stereotype behavior observed”.

In the case of `C#CCN(C)Cc1ccccc1` [pargyline], the “duration of activity with increased locomotion” value [10, 15] is reported as 45 min and the “latency to reversal of akinesia” value [10, 15] is reported as “less than five minutes”.

With `NNCCc1ccccc1` [phenelzine, reference compound] the “potency relative to PAPD” value [5] was “two orders of magnitude more potent than PAPD”.
